Results on 20 compounds are retold here after patent US20100286215A1, “BIS-AROMATIC COMPOUNDS USEFUL IN THE TREATMENT OF INFLAMMATION” (BIS-AROMATIC COMPOUNDS USEFUL IN THE TREATMENT OF …, priority 2007, published 2010).

As a reminder, the IC50 is the point on the concentration scale where inhibition reaches its midpoint. As a reminder, the inhibition is the drop in the measured response relative to a control, in per cent.

One experiment deals with T1, Recombinant human LTC4 synthase (Homo sapiens, UniProt Q16873).
T1 construct: made in house; host or cells: Pichia pastoris ('Piccia pastoralis' [sic])
T1 sequence (Q16873 1-150): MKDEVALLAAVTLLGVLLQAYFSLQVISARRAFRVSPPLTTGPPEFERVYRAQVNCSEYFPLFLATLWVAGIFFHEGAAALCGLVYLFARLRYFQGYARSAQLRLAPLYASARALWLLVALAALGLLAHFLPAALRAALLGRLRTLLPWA
Description: LTC4 synthase assay (conversion of LTA4 methyl ester to LTC4 methyl ester, HPLC). The experiment is classed as biochemical.
Details: not given
As to the method: In the assay LTC4 synthase catalyses the reaction where the substrate LTA4 methyl ester is converted to LTC4 methyl ester. Recombinant human LTC4 synthase is expressed in Piccia pastoralis and the purified enzyme is dissolved in 25 mM Tris-buffer pH 7.8 and stored at −20° C. The assay is performed in phosphate buffered saline (PBS) pH 7.4, supplemented with 5 mM glutathione (GSH). The reaction is terminated by addition of acetonitrile/MeOH/acetic acid (50/50/1). The assay is performed at rt in 96-well plates. Analysis of the formed LTC4 methyl ester is performed with reversed phase HPLC (Waters 2795 utilizing an Onyx Monolithic C18 column). The mobile phase consists of acetonitrile/MeOH/H2O (32.5/30/37.5) with 1% acetic acid pH adjusted with NH3 to pH 5.6, and absorbance measured at 280 nm with a Waters 2487 UV-detector.
The following is added chronologically to each well: • 1. 50 μl assay buffer, PBS with 5 mM GSH. • 2. 0.5 μl inhibitor in DMSO. • 3. 2 μl LTC4 synthase in PBS. The total protein concentration in this solution is 0.025 mg/ml. Incubation of the plate at room temperature for 10 minutes. • 4. 0.5 μl LTA4 methyl ester. Incubation of the plate at rt for 1 min. • 5. 50 μl stop solution. 80 μl of the incubation mixture is analysed with HPLC.
In the case of `CC(C)Oc1ccc(Nc2ccc(C(=O)c3ccc(Nc4ccc(OC(C)C)cc4)c(C(=O)O)c3)cc2C(=O)O)cc1` [Example 2, 2-(4-isopropoxyphenylamino)-5-(4-(4-isopropoxyphenylamino)-3-carboxyphenylcarbonyl)benzoic acid], the IC50 was 258 nM.

Staying with this experiment, now noted: inhibitor concentration 10 μM.
In the case of `O=C(c1ccc(Oc2ccc(Cl)cc2)c(C(=O)O)c1)c1ccc(Oc2ccc(Cl)cc2)c(C(=O)O)c1` [11:3, 5-{3-Carboxy-[4-(chlorophenoxy)]-benzoyl}-2-(4-chlorophenoxy)-benzoic acid], the “Percantage Inhibition at 10 μM (unless specified otherwise)” value is listed as 97%.

Staying with this experiment, now noted: inhibitor concentration 10 μM; read-out: Percantage Inhibition at 10 μM (unless specified otherwise).
With `CN(c1ccc(F)c(F)c1)c1ccc(C(=O)c2ccc(NC(=O)c3cc(Cl)ccc3O)cc2)cc1C(=O)O` [Example 18, 5-(4-(5-chloro-2-hydroxy-benzamido)benzoyl)-2-((3,4-difluorophenyl)(methyl)-amino)benzoic acid], the inhibition at 10 µM was 100%.
`CN(c1ccc(Cl)cc1)c1ccc(C(=O)c2ccc(Nc3ccc(C(F)(F)F)cc3)c(C(=O)O)c2)cc1` [9:3, 5-{4-[(4-Chloro-phenyl)-methyl-amino]-benzoyl}-2-(4-trifluoromethyl-phenylamino)-benzoic acid]: the inhibition at 10 µM is 86%.
Turning to `O=C(c1ccc(NC(=O)c2cc(Cl)ccc2O)cc1)c1ccc(Nc2ccc(F)c(F)c2)c(C(=O)O)c1` [5:4, 5-[4-(5-Chloro-2-hydroxy-benzoylamino)-benzoyl]-2-(3,4-difluoro-phenylamino)-benzoic acid], the inhibition at 10 µM is 78%.
Turning to `O=C(c1ccc(NC(=O)c2cc(Cl)cnc2Cl)cc1)c1ccc(Nc2ccc(F)c(F)c2)c(C(=O)O)c1` [5:12, 5-{4-[(2,5-Dichloro-pyridine-3-carbonyl)-amino]-benzoyl}-2-(3,4-difluoro-phenylamino)-benzoic acid], the inhibition at 10 µM worked out at 98%.
Still for that read-out and setting: the figure for `O=C(c1ccc(Nc2ccc(Cl)nc2)cc1)c1ccc(Nc2ccc(F)c(F)c2)c(C(=O)O)c1` [5:7, 5-[4-(6-Chloro-pyridin-3-ylamino)-benzoyl]-2-(3,4-difluoro-phenylamino)-benzoic acid] is 90%.
For `CC(C)Oc1ccc(C(=O)Nc2ccc(C(=O)c3ccc(Nc4ccc(F)c(F)c4)c(C(=O)O)c3)cc2)cc1` [Example 15, 2-(3,4-difluorophenylamino)-5-(4-(4-isopropoxybenzamido)benzoyl)benzoic acid], the inhibition at 10 µM came out at 68%.
With `O=C(c1ccc(NC(=O)c2ccccc2Cl)cc1)c1ccc(Nc2ccc(F)c(F)c2)c(C(=O)O)c1` [5:5, 5-[4-(2-Chloro-benzoylamino)-benzoyl]-2-(3,4-difluoro-phenylamino)-benzoic acid], the inhibition at 10 µM was 97%.
Turning to `O=C(Nc1ccc(C(=O)c2ccc(NC(=O)c3cccc4ccsc34)c(C(=O)O)c2)cc1)c1cccc(Cl)c1` [7:5, 2-[(Benzo[b]thiophene-7-carbonyl)-amino]-5-[4-(3-chloro-benzoylamino)-benzoyl]-benzoic acid], the inhibition at 10 µM came out at 100%.
`CN(c1ccc(Cl)cc1)c1ccc(C(=O)c2ccc(Oc3cccc(C(F)(F)F)c3F)c(C(=O)O)c2)cc1` [6:7, 5-{4-[(4-Chloro-phenyl)-methyl-amino]-benzoyl}-2-(2-fluoro-3-trifluoromethyl-phenoxy)-benzoic acid]: the inhibition at 10 µM came out at 96%.
For the compound `O=C(c1ccc(NS(=O)(=O)c2ccc(Cl)cc2)cc1)c1ccc(NC(=O)c2cc(Cl)ccc2O)c(C(=O)O)c1` [7:8, 5-[4-(4-Chloro-benzenesulfonylamino)-benzoyl]-2-(5-chloro-2-hydroxy-benzoylamino)-benzoic acid], the inhibition at 10 µM came out at 96%.
As to `CN(c1ccc(F)c(F)c1)c1ccc(C(=O)c2ccc(Nc3ccc(Cl)cc3)cc2)cc1C(=O)O` [Example 19, 5-(4-(4-chlorophenylamino)-benzoyl)-2-((3,4-difluoro-phenyl)(methyl)amino)-benzoic acid], the inhibition at 10 µM stood at 75%.
Regarding `CN(c1ccc(Cl)cc1)c1ccc(C(=O)c2ccc(Oc3cccc4c3CCCC4)c(-c3nnn[nH]3)c2)cc1` [10:1, {4-[(4-Chloro-phenyl)-methyl-amino]-phenyl}-[4-(5,6,7,8-tetrahydro-naphthalen-1-yloxy)-3-(1H-tetrazol-5-yl)-phenyl]-methanone], the inhibition at 10 µM was 97%.
Same read-out and setting: the figure for `COc1ccc(Cl)cc1S(=O)(=O)Nc1ccc(C(=O)c2ccc(NC(=O)c3cccc(Cl)c3)cc2)cc1C(=O)O` [7:3, 5-[4-(3-Chloro-benzoylamino)-benzoyl]-2-(5-chloro-2-methoxy-benzenesulfonylamino)-benzoic acid] is 96%; for `O=C(c1ccc(Nc2ccc(F)c(F)c2)cc1)c1ccc(Nc2ccc(F)c(F)c2)c(C(=O)O)c1` [5:3, 2-(3,4-Difluoro-phenylamino)-5-[4-(3,4-difluoro-phenylamino)-benzoyl]-benzoic acid] it is 84%.
Take `CN(c1ccc(Cl)cc1)c1ccc(C(=O)c2ccc(NC3CCC(C(C)(C)C)CC3)c(C(=O)O)c2)cc1` (stereo not drawn) [Example 14:3, 2-(4-tert-Butyl-cyclohexylamino)-5-{4-[(4-chloro-phenyl)-methyl-amino]-benzoyl}-benzoic acid]: the inhibition at 10 µM stood at 86%.
With `O=C(c1ccc(Nc2ccc(Cl)cn2)cc1)c1ccc(Nc2ccc(F)c(F)c2)c(C(=O)O)c1` [5:6, 5-[4-(5-Chloro-pyridin-2-ylamino)-benzoyl]-2-(3,4-difluoro-phenylamino)-benzoic acid], the inhibition at 10 µM came to 84%.
On to `CC(C)Oc1ccc(Nc2ccc(C(=O)c3ccc(Nc4ccc(OC(C)C)cc4)c(C(=O)O)c3)cc2C(=O)O)cc1` [Example 2, 2-(4-isopropoxyphenylamino)-5-(4-(4-isopropoxyphenylamino)-3-carboxyphenylcarbonyl)benzoic acid], for which the inhibition at 10 µM turned out to be 99%.
`O=C(c1ccc(Nc2ccc(Cl)cc2)cc1)c1ccc(Nc2ccc(F)c(F)c2)c(C(=O)O)c1` [Example 16, 5-(4-(4-chlorophenylamino)-benzoyl)-2-(3,4-difluoro-phenylamino)benzoic acid]: the inhibition at 10 µM amounted to 94%.
On the same count and under the same terms, the figure for `O=C(Nc1ccc(C(=O)c2ccc(NC(=O)c3ccc(Cl)cc3Cl)c(C(=O)O)c2)cc1C(=O)O)c1ccc(OC(F)(F)F)cc1` [Example 11, 2-(4-(trifluoromethoxy)benzamido)-5-(4-(2,4-dichloro-benzamido)-3-carboxyphenyl-carbonyl)benzoic acid] is 100%.
